In patent US9469804B2, “Foaming composition with wettability modifying and corrosion inhibitory properties for high temperature and ultra-high salinity” (INSTITUTO MEXICANO DEL PETROLEO, priority 2012, dated 2016):

Tests used:
[1] = Phase stability evaluation in brines with ultra-high salinity (turbidity); format: physicochemical; conditions: 0.2% by weight, room temperature, pass limit 30 NTU
Method: A phase stability study was carried out for the supramolecular complexes object of the present invention, described in Examples 19, 20 and 21 and whose basic structural formula is indicated in (36).
All the products were assessed at concentration of 0.2% by weight, dissolved in different waters with high salinity and concentrations of divalent ions, through the measurement of turbidity in NTU (Nephelometric Turbidity Units). This value indicates how turbid or clear a solution/chemical product is and the higher the value, the more turbid the solution is.
The measurement is based on applying the nephelometric technique by using a photometer. The standard method is based on the comparison of the amount of light dispersed by the colloidal particles present in a sample of water with the intensity of the light emerging across the same sample.
It is worth mentioning that in order to pass this test, a value 30 NTU should not be exceeded.

[2] = Foaming test at atmospheric pressure (foam stability); format: physicochemical; conditions: brine 1, 70°C, 0.2% by weight, nitrogen

TURBIDITY ([1]; BRINE 1 (salinity as NaCl 32803.9, hardness 6420 mg/L)): 1.09 NTU
TURBIDITY ([1]; BRINE 2 (salinity as NaCl 152974.9, hardness 35200 mg/L)): 1.68 NTU
TURBIDITY ([1]; BRINE 3 (salinity as NaCl 253859.1, hardness 87700 mg/L)): 3.9 NTU
time in which the minimum foam stability of 30% is reached [2]: 60 min
Substance: coco-amido-propyl-hydroxysultaine [Coco amido-propyl hydroxysultaine]
